Values belong to the compound of their own block, whether it stands above or below them.
How the values were obtained:
[1] = In situ rat perfusion; format: in vivo; details: 100 μM; for Ka1 absorption rate coefficient: six independent experiments
[2] = Caco-2 cell monolayers transport assay; format: in vitro ADME; details: human, Caco-2
[3] = system: leukemia Jurkat-T; format: cell-based, human; details: read-out: IC50 Jurkat; 24 h incubation, MTT, mean ± SD (n = 4)
[4] = system: lung A549; format: cell-based, human; details: read-out: IC50 A549; 24 h incubation, MTT, mean ± SD (n = 4)
[5] = system: plasmid (pBR322) DNA; assay: Electrophoresis mobility shift assay with plasmid DNA; format: binding; details: 37 °C, 20 h, metal/DNAbp ratios 0.25–2.0
[6] = system: prostate DU-145; format: cell-based, human; details: read-out: IC50 DU-145; 24 h incubation, MTT, mean ± SD (n = 4)
[7] = system: triple-negative breast MDA-MB-231; format: cell-based, human; details: read-out: IC50 MDA-MB-231; 24 h incubation, MTT, mean ± SD (n = 4)
[8] = system: pancreas MiaPaca2; format: cell-based, human; details: read-out: IC50 MiaPaca2; 24 h incubation, MTT, mean ± SD (n = 4)
[9] = system: non-tumorigenic human embryonic kidney cells HEK293T; format: cell-based; details: read-out: IC50 HEK-293T; 24 h incubation, MTT, mean ± SD (n = 4)
[10] = system: Caco-2 monolayers; assay: Caco-2 cell monolayers transport assay; format: in vitro ADME; details: Caco-2 monolayers, 20 μM, three independent experiments

Peff [1]: 5.19 × 10^–6 cm/s
Compound: CC(C)NCC(O)COc1ccc(CC(N)=O)cc1 (stereo not drawn) [atenolol]

Peff [1]: 3.97 × 10^–5 cm/s
Ka1 absorption rate coefficient [1]: 1.68 h^–1
Papp at 90 min, 20 μM [2]: 1.86 ×10⁻⁶ cm/s
Compound: CN/C(=N/CCSCc1nc[nH]c1C)NC#N [cimetidine]

Compound: N.N.[Cl][Pt][Cl] [cisplatin]
IC50 [3]: 10.8 ± 1.2 µM
IC50 [4]: 114 ± 9.1 µM
effect on electrophoretic mobility of plasmid forms [5]: able to both increase and decrease the mobility of the OC and the CCC forms
IC50 [6]: 112 ± 33 µM
IC50 [7]: 131 ± 18 µM
IC50 [8]: 76.5 ± 7.4 µM
IC50 [9]: 69 ± 6.7 µM

Peff [1]: 5.40 × 10^–5 cm/s
Ka1 absorption rate coefficient [1]: 2.30 h^–1
Papp at 90 min, 20 μM [2]: 23.2 ×10⁻⁶ cm/s
Compound: COCCc1ccc(OCC(O)CNC(C)C)cc1 (stereo not drawn) [metoprolol]

Peff [10]: 1.90 × 10^–7 cm/s
Compound: Lucifer Yellow

Reference: publication PMC4538566 (Journal of Medicinal Chemistry, 2015)
